Results taken from US6667309B2, “Cyclobutene derivatives useful as antagonists of the motilin receptor” (Ortho-McNeil Pharmaceutical, Inc., priority 2000, dated 2003).

Target: T1, motilin receptors located on the colon of mature rabbits (Oryctolagus cuniculus, UniProt G1T803)
T1 construct: The muscle tissues were homogenized in 10 volumes of buffer; from tissue; host or cells: rabbit colon smooth muscle, crude membrane homogenate
Experiment: Competition with radiolabeled motilin (porcine) binding, rabbit colon membranes
Design: species or system New Zealand rabbits
Conditions: I125 motilin (porcine), rabbit colon membrane
Description: The compounds of the invention were tested for their ability to compete with radiolabeled motilin (porcine) for the motilin receptors located on the colon of mature rabbits. The colon from mature New Zealand rabbits was removed, dissected free from the mucosa and serosa layers, and diced into small pieces. The muscle tissues were homogenized in 10 volumes of buffer (50 mM Tris-Cl, 10 mM MgCl2, 0.1 mg/mL bactracin, and 0.25 mM Peflabloc, pH 7.5) in a Polytron (29,000 rpm, 4×15 seconds). The homogenate was centrifuged at 1000×g for 15 min. and the supernatant discarded. The pellet was washed twice before being suspended in homogenizing buffer. This crude homogenate was then passed first through a 19 gauge needle then a 23 gauge needle to further suspend the material and stored at −80° C. […] The pellet was counted in the gamma counter to determine the percentage of […] motilin and thereby the percent inhibition of the test compound.
% inhibition was determined for some compounds by standard techniques: […]

T1 sequence (G1T803 1-400): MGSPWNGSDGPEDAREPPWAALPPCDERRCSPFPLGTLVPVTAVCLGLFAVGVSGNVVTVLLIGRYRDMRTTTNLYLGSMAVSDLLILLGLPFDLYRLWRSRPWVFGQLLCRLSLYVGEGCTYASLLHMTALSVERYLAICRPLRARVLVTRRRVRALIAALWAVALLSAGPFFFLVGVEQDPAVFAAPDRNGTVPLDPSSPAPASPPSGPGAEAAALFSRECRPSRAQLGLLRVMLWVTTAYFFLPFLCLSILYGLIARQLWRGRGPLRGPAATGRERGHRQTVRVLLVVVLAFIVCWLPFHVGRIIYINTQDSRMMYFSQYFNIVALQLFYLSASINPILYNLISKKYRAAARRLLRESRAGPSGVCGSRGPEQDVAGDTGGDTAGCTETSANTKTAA

SMILES | % inhibition (@ 10,000 nM test compound) | % inhibition (@ 1,000 nM test compound)
O=C(c1ccc(Br)cc1)N(CC1=CC(Cc2ccccc2)(NC(=O)C(Cl)(Cl)Cl)C1)c1cccc(OCCN2CCOCC2)c1 (centres unmarked) [example 7, 3-Benzyl-3-trichloroacetamido-1-[N-(4-bromobenzoyl)]-N-[(3-(2-morpholinoethoxy)phenyl)amino]methylcyclobutene] | 47% | 
O=C(c1ccc(F)c(F)c1)N(CC1=CC(Cc2ccccc2)(NC(=O)C(Cl)(Cl)Cl)C1)c1cccc(OCCN2CCOCC2)c1 (centres unmarked) [example 6, 3-Benzyl-3-trichloroacetamido-1-[N-(3,4-difluorobenzoyl)]-N-[(3-(2-morpholinoethoxy)phenyl)amino]methylcyclobutene] |  | 14%
